# Entries after “also recorded” stand apart in the source; their conditions may differ.
# Assays:
# [1] = test system: PIK3CA pathway (phosphorylation of AKT and S6RP) in NF1−/− cells; assay: Western blot of AKT and S6RP phosphorylation in immortalized NF1−/− cells; assay type: cell-based; settings: after 12 h of exposure
# Excerpt: (§1) FIG. 1: NF1+/+ and NF1−/− cells were exposed to either DMSO, BYL719 at different concentrations […], selumetinib at different concentrations (1 and 10 mmol·L−1) or a combination of BYL719 1 mmol·L−1 and selumetinib 10 mmol·L−1 or BYL719 1 mmol·L−1 and selumetinib 10 mmol·L−1 and IPA3. […] The addition of BYL719 to either selumetinib or selumetinib and IPA3 increases cells apoptosis. All data are shown as the means±s.e.m. ANOVA followed by Tukey-Kramer test. White column: NF1+/+, black column: NF1−/−.
# (§2) Inventors first checked in immortalized NF1−/− cells if the PIK3CA pathway was recruited (FIGS. 1A, 1B and 1C). […] They then treated the cells with BYL719. […] They then exposed the NF1−/− cells to different dose of selumetinib, a MAP kinase inhibitor, drug that gave encouraging results in some patients with neurofibromatosis.
# NF1−/− cells = assay: Apoptosis assessed by PARP cleavage in NF1−/− cells; assay type: cell-based; settings: different doses, FIG. 1C
# Excerpt: as §1, §2
structure (smiles),measurement,setting,value
Cc1nc(NC(=O)N2CCC[C@H]2C(N)=O)sc1-c1ccnc(C(C)(C)C(F)(F)F)c1 [BYL719],phosphorylation of AKT,[1]; FIG. 1A,efficiently blocks; also recorded: efficiently blocking
same,phosphorylation of S6RP,[1]; FIG. 1B,efficiently blocks; also recorded: efficiently blocking
same,apoptosis as assessed by PARP cleavage,NF1−/− cells,induces apoptosis; also recorded: increased apoptosis as assessed by PARP cleavage in a dose dependent manner

# Reference: patent publication US20220047567A1, “METHODS FOR THE TREATMENT OF NEUROFIBROMATOSIS” (INSERM (INSTITUT NATIONAL DE LA SANTÉ ET DE LA RECHERCHE …, priority 2018, published 2022)
